Source: patent publication US20210206820A1 (Purdue Research Foundation, priority 2018, published 2021)
Primed or numbered codes have the meaning given here. Where no end group is shown, it is not given here. [ ]: non-standard residue; d: D form. PEG2′ = PEG2 spacer

Experiments:
[1] = system: fracture callus of fractured femur; experiment: Femur fracture model, microCT of the fracture callus (BV/TV, TbTh, BV, TbSp); assay type: in vivo, Swiss Webster mice; conditions: local injections
[2] = system: pre-osteoblastic cell line MC3T3-E1; experiment: Alkaline phosphatase (ALP) activity of pre-osteoblastic cells after 7 days exposure; assay type: cell-based, mouse; conditions: 0.1-5 nM in culture media for 7 days, vs DMSO alone
[3] = system: fracture callus of fractured femur; experiment: Femur fracture model, microCT of the fracture callus (BV/TV, TbTh, BV, TbSp); assay type: in vivo, Swiss Webster mice
From the text: All in vivo data included herein are from swiss Webster mice. All mice received an osteotomy on their right femur and received subcutaneous drug administration daily for either 2, 3 or 4 weeks, as indicated, for each compound. 1× concentration represents 1 nmol/day, 10× represents 10 nmol/day, 100× represents 100 nmol/day most studies have an n of 5.
The term “BV/TV” means the bone volume divided by total volume of the 100 thickest micro CT slices of the fracture callus.
The term “TbTh” means the trabecular thickness of the 100 thickest micro CT slices of the fracture callus.
The term “[…]” means the overall bone volume of the 100 thickest micro CT slices of the fracture callus.
The term “TbSp” means the spacing between the trabecula in the 100 thickest micro CT slices of the fracture callus.
(§1) The targeted conjugates were synthesized using standard Fmoc solid-phase peptide synthesis, as described above. To ensure the conjugates' activity, mouse pre-osteoblast ([…]) cells were treated with the targeted and untargeted compounds for three days at concentrations from 1 pM to 100 nM. After three days of treatment, the cells were harvested, and the RNA was purified from the cells. Expression levels of ALP, RUNx2 (transcription factor for osteoblast differentiation), osterix (OSX), osteopontin (OPN), collagen 1A (Col-1A), OPG, RANKL, sclerostin gene (SOST), and OC were quantified via quantitative reverse transcription polymerase chain reaction (RT-qPCR). Once the biological activity of the conjugates was confirmed, they were tested in vivo in a fracture model. Aseptic surgical techniques were used to place a 23-gage needle as in intramedullary nail in the femur of anesthetized, 12-week-old Swiss Webster mice for internal fixation before fracture. Femur fractures were induced using a drop weight fracture device from RISystem. The mice received buprenorphine for three days post fracture. The mice were dosed subcutaneously each day for three weeks or 17 days. Fracture healing was assessed using microCT (Scanco Medical Ag). Morphometric parameters were quantified in the 100 widest slices of the fracture callus. Trabecular thickness (TbTh), trabecular spacing (TbSp), total volume (TV), and volume of calcified callus (BV) were calculated. Fractured femurs were tested for strength in a four-point bend to failure using an Electro Force TestBench (TA Instruments). Lower supports were 10 mm apart on the anterior face of the femur in contact with the proximal and distal diaphysis. Upper supports were 4 mm apart and spanned the entire fracture callus on the diaphysis. Force was applied from the posterior face of the femur with a displacement rate of 0.3 mm/sec. Peak load, yield load, stiffness, displacement post yield, work to fracture, and deformation data were generated. Statistical analysis was performed using a two-way analysis of variance (ANOVA) and a Tukey post-hoc analysis with significance reported at the 95% confidence level. All animal experiments were performed in accordance with protocols approved by Purdue University's Institutional Animal Care and Use Committee (IACUC).

[4] = system: healed fractured femur; experiment: Postmortem four-point bend of the healed femur (peak/max load, stiffness, work to fracture); assay type: in vivo, Swiss Webster mice; conditions: for Bone strength (Max Load, Work to Fracture): n=5
Procedure: The term “Peak Load” means a postmortem 4 point bend of the healed femur. Peak load represents the maximum force the healed femur withstood before it refractured.
as §1, with “The mice were dosed subcutaneously each day for three weeks or 17 days.” left out
Referring to FIGS. 26a, 26b, and 26c, in vivo fracture healing efficacy of VIP_mp4_(D)E10 conjugate on Swiss Webster fracture-bearing mice (n=5) after 3 weeks was reflected as BV/TV, Max Load, and Work to Fracture respectively. […]

[5] = target: T1, VPAC-1 (Homo sapiens, UniProt P32241); conditions: VIP compared with PACAP; cited from earlier work
T1 sequence (P32241 31-457): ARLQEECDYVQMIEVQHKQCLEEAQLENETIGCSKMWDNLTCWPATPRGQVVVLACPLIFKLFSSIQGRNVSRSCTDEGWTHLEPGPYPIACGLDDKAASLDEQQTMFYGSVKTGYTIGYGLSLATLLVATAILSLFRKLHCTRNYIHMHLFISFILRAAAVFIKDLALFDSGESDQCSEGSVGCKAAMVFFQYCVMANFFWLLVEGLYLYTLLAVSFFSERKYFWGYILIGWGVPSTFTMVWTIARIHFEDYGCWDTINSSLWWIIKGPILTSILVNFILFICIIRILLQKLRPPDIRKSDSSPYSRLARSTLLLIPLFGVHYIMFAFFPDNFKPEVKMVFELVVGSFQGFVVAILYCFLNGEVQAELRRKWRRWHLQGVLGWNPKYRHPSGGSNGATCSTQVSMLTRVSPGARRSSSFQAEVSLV

[6] = target: T2, VPAC-2 (Homo sapiens, UniProt P41587); conditions: VIP compared with PACAP; cited from earlier work
T2 sequence (P41587 24-438): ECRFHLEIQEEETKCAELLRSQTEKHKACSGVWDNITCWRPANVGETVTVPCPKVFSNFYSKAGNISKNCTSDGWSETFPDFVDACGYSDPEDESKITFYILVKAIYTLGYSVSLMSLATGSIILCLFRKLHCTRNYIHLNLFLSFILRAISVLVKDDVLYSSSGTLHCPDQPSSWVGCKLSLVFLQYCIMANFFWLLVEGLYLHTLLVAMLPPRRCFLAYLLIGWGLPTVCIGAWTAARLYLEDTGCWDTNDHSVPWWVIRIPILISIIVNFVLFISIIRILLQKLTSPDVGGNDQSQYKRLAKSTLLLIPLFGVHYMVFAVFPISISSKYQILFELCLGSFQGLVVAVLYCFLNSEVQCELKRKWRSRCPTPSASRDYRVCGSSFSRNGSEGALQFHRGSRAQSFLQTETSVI

[7] = 2 weeks, daily sc, 1 to 100 nmol/day
[8] = 3 weeks, 0.1, 1, 10 nmol per day sc, n=5
[9] = 4 weeks, daily sc, various concentrations from 1 to 100 nmol/day

Molecule: Cc1ncc(CO)c(C)c1O [DOP, 4-deoxypyridoxine]
- Fracture healing [1]: acceleration of fracture healing

Molecule: CC(C)Oc1ccc(-c2nc(-c3cccc4c3CC[C@@H]4NCCO)no2)cc1C#N [ozanimod, Ozanimod]
- Alkaline phosphatase (ALP) activity [2]: boost
- Fracture healing [1]: acceleration of fracture healing

Molecule: Amylin(1-8)-D10: amino acid 1-8 of native amylin attached to 4 peg2 spacers then ten aspartic acid (KCNTATCA[PEG2′][PEG2′][PEG2′][PEG2′]DDDDDDDDDD; not fully specified (bridges); ends and bridges not checked; UniProt P10997 34-41, looked up, fragment)
- Bone density (BV/TV) at the fracture calluses ([3]; 3 weeks, 1, 10, 100 nmol per day sc, n=5): raises bone density
- Bone strength (Max Load, Work to Fracture) ([4]; 3 weeks, 1, 10, 100 nmol per day sc): improves bone strength

Molecule: BFP-D10: bone forming peptide conjugated with 10 aspartate acids, SEQ ID NO: 1 DDDDDDDDDDGQGFSYPYKAVFSTQ (BFP D10)
- BV/TV [3, 7]: dose dependent manner
- TbSp [3, 7]: dose dependent manner
- Peak load of fractured femurs, ranking as compared to PBS ([4]; 100 nmol/day (100×), after 2 weeks): obtained the maximum peak load

Molecule: CBM D10: collagen binding motif of osteopontin conjugated with 10 aspartate acids
- BV/TV ([3]; 3 weeks, 0.1, 1 and 10 nmol/day): dose dependent manner

Molecule: CGRP (D)E10: full natural 37 amino acid CGRP, cyclized 2-7, C-terminal 4 minipeg spacers and ten D glutamic acids
- Bone density (BV/TV) at the fracture calluses [3, 8]: raises bone density
- Bone volume (BV) [3, 8]: stimulates more bone to be generated
- Bone strength (Max Load, Work to Fracture) ([4]; 3 weeks, 0.1, 1, 10 nmol per day sc): raises bone strength

Molecule: Ghrelin-D10: Ghrelin D10 with Serine (Ser)-3 replaced with diaminopropinoic acid
- BV/TV [3, 9]: dose dependent manner

Molecule: MGF D10: Mechano-growth factor conjugated with 10 aspartate acids, SEQ ID NO: 11 DDDDDDDDDDYQPPSTNKNTKSQRRKGSTFEEHK (Mechano-growth factor (MGF) D10, an IGF-I fragment)
- BV/TV [3, 9]: dose dependent manner

Molecule: OGP-D10: osteogenic growth peptide conjugated with 10 aspartate acids, SEQ ID NO: 2 DDDDDDDDDDALKRQGRTLYGFGG (OGP D10)
- BV/TV [3, 7]: dose dependent manner
- TbSp [3, 7]: dose dependent manner
- TbTh [3, 7]: dose dependent manner

Molecule: P4 D10: P4 (knuckle epitope fragment of hBMP-2) conjugated with 10 aspartate acids (HKIPKASSVPTELSAISTLYLDDDDDDDDDD; P4 D10-a BMP2 fragment)
- Bone volume (BV) ([3]; 4 weeks, 1 nmol/day): healing was reflected
- BV/TV [3, 9]: dose dependent manner

Molecule: Pituitary Adenylyl Cyclase Activating Peptide [PACAP]
- Affinity for VPAC-1 [5]: equal affinity
- Affinity for VPAC-2 [6]: equal affinity

Molecule: Preptin-D10: Preptin conjugated with 10 aspartate acids, SEQ ID NO: 3 (HDVSTSQAVLPDDFPRYDDDDDDDDDD; Preptin D10)
- Bone volume (BV) ([3]; 2 weeks, daily sc, 1, 10, 100 nmol/day): dose dependent manner
- BV/TV [3, 7]: dose dependent manner
- TbTh [3, 7]: dose dependent manner

Molecule: pBMP9 D10: 23-residue peptide from the knuckle epitope of human BMP-9 targeted with D10 (CGGKVGKACCVPTKLSPISVLYK[miniPEG][miniPEG][miniPEG][miniPEG]DDDDDDDDDD; cysteine pairing not given here)
- Bone volume (BV) ([3]; 4 weeks, daily sc, 1, 10, 100 nmol/day): dose dependent manner
- BV/TV [3, 9]: dose dependent manner

Molecule: substance P D10: substance P with 4 mini PEG linker and conjugated with 10 aspartate acids (DDDDDDDDDDRPKPQQFFGLM; 4 mini PEG linker; substance P 4 mini PEG D10 with; (10)..(11) 4 mini PEG linker)
- BV/TV [3, 9]: dose dependent manner
- Peak load the healed femur can withstand ([4]; 10× (10 nmol/day), 4 weeks): 30-35 Newtons
